Laboratory results as given in paper PMC5772355 (Scientific Reports, 2018).

Tests used:
[1] = target: T1, xCT (SLC7A11), system xc− (Mus musculus, UniProt Q9WTR6); experiment: inhibition of L-[…]cystine uptake in xCT-overexpressing MEF; format: cell-based
T1 construct: coding region of murine xCT, stably overexpressed in MEF; with 4F2 heavy chain (SLC3A2)
T1 sequence (Q9WTR6 1-502): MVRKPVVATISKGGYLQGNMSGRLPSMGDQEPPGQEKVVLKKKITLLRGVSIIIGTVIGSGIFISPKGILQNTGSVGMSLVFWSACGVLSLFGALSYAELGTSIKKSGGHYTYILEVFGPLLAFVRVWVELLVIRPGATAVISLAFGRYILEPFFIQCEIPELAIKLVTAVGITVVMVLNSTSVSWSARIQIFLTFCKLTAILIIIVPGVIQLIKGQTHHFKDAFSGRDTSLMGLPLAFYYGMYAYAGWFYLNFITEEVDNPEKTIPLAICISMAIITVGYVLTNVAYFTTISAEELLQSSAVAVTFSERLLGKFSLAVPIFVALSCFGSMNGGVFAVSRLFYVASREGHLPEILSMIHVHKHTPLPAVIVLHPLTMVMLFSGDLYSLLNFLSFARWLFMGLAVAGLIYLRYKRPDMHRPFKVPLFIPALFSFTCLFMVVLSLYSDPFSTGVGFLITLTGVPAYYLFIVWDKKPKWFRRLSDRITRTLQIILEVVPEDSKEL
T1 sequence (P10852 1-526 partner): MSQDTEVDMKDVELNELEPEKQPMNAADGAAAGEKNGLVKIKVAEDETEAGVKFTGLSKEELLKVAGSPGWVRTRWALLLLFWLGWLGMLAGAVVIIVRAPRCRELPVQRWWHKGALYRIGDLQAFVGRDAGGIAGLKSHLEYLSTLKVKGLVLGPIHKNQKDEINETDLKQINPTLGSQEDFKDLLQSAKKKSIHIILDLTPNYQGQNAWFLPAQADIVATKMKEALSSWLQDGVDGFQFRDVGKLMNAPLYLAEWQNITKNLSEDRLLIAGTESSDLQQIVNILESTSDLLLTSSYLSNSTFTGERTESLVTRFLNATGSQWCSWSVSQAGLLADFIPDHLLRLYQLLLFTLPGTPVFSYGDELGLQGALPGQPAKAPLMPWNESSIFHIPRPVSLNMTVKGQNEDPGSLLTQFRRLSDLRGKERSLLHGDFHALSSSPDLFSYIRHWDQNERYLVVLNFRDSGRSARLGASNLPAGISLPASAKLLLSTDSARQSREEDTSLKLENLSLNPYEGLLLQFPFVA

[2] = target: T1, xCT (SLC7A11), system xc−; experiment: as above; format: cell-based; remark: listed apart in the source

`N[C@@H](CCC(=O)O)C(=O)O` [Glu, L-glutamate] gave an inhibition at 100 µM [1] of about 50%.
With `N[C@@H](Cn1oc(=O)[nH]c1=O)C(=O)O` [QA, quisqualic acid] the IC50 [2] was 15.4 µM.
`O=C(O)c1cc(/N=N/c2ccc(S(=O)(=O)Nc3ccccn3)cc2)ccc1O` [SAS, sulfasalazine] gave an IC50 [2] of 26.1 µM.
`CCOc1ccccc1-n1c(C(C)N2CCN(C(=O)COc3ccc(Cl)cc3)CC2)nc2ccccc2c1=O` (stereo not shown) [erastin] was tested, and the IC50 [2] was 1.4 µM.
